Laboratory results published in US6525001B1, “Substituted pyrimidine and pyridine herbicides” (Mid-American Commercialization Corporation, priority 1997, dated 2003).

Experiments:
Experiment in all cases: Test B pre-/postemergence
Assay type in all cases: in vivo
Parameters in all cases: key: 0 is no effect; 10 is complete control
[1] = tested on: cocklebur (Xanthium strumarium)
How it was run: (§1)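 Seeds were planted and sprayed preemergence, while plants at 2 to 18 cm (1- to 4-leaf stage) were sprayed postemergence at the same time, with test chemical in a non-phytotoxic solvent mixture containing surfactant. After twelve to sixteen days in a greenhouse, injury was rated visually against untreated controls on a 0–10 scale.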

[2] = tested on: blackgrass (Alopecurus myosuroides)
How it was run: as §1

[3] = tested on: pigweed (Amaranthus retroflexus)
How it was run: as §1

[4] = tested on: momingglory (Ipomoea hederacea)
How it was run: as §1

[5] = tested on: broadleaf signalgrass (Brachiaria decumbens)
How it was run: as §1

[6] = Preemergence, Rate 62 g/ha, scale of 0 to 10

Compound	Plant response rating, Cocklebur ([1]; Rate 250 g/ha, Postemergence)	Plant response rating, Cocklebur ([1]; Rate 250 g/ha, Preemergence)	Plant response rating, Cocklebur ([1]; Rate 500 g/ha, Postemergence)	Plant response rating, Cocklebur ([1]; Rate 500 g/ha, Preemergence)	Plant response rating, Blackgrass ([2]; Rate 250 g/ha, Postemergence)	Plant response rating, Blackgrass ([2]; Rate 250 g/ha, Preemergence)	Plant response rating, Blackgrass ([2]; Rate 500 g/ha, Postemergence)	Plant response rating, Blackgrass ([2]; Rate 500 g/ha, Preemergence)	Plant response rating, Redroot pigweed ([3]; Rate 250 g/ha, Postemergence)	Plant response rating, Redroot pigweed ([3]; Rate 250 g/ha, Preemergence)	Plant response rating, Redroot pigweed ([3]; Rate 500 g/ha, Postemergence)	Plant response rating, Redroot pigweed ([3]; Rate 500 g/ha, Preemergence)	Plant response rating, Morningglory ([4]; Rate 250 g/ha, Preemergence)	Plant response rating, Morningglory ([4]; Rate 500 g/ha, Postemergence)	Plant response rating, Morningglory ([4]; Rate 500 g/ha, Preemergence)	B. signalgrass plant response rating ([5]; Rate 62 g/ha, Preemergence)	Plant response rating, B. signalgrass ([5]; Rate 250 g/ha, Postemergence)	Plant response rating, B. signalgrass ([5]; Rate 250 g/ha, Preemergence)	Plant response rating, B. signalgrass ([5]; Rate 500 g/ha, Postemergence)	Plant response rating, B. signalgrass ([5]; Rate 500 g/ha, Preemergence)	further results
Cc1cnc(-c2ccc(C(F)(F)F)cc2)nc1Cn1cnc(C(F)(F)F)c1 [Compound 10]	9	1	9	3	3	2	3	3	9	7	9	7	9	9	10	1	3	2	3	4	Plant response rating, Cocklebur ([1]; Rate 62 g/ha, Postemergence): 6; Plant response rating, Cocklebur ([1]; Rate 125 g/ha, Postemergence): 8; Plant response rating, Blackgrass ([2]; Rate 62 g/ha, Postemergence): 1; Blackgrass plant response rating ([2]; Rate 62 g/ha, Preemergence): 1; Plant response rating, Blackgrass ([2]; Rate 125 g/ha, Postemergence): 1; Blackgrass plant response rating ([2]; Rate 125 g/ha, Preemergence): 2; Plant response rating, Redroot pigweed ([3]; Rate 62 g/ha, Postemergence): 9; Redroot pigweed plant response rating ([3]; Rate 62 g/ha, Preemergence): 3; Plant response rating, Redroot pigweed ([3]; Rate 125 g/ha, Postemergence): 9; Redroot pigweed plant response rating ([3]; Rate 125 g/ha, Preemergence): 6; Plant response rating, Morningglory ([4]; Rate 62 g/ha, Postemergence): 5; Morningglory plant response rating ([4]; Rate 62 g/ha, Preemergence): 2; Plant response rating, Morningglory ([4]; Rate 125 g/ha, Postemergence): 7; Morningglory plant response rating ([4]; Rate 125 g/ha, Preemergence): 3; Plant response rating, Morningglory ([4]; Rate 250 g/ha, Postemergence): 7; Plant response rating, B. signalgrass ([5]; Rate 62 g/ha, Postemergence): 2; Plant response rating, B. signalgrass ([5]; Rate 125 g/ha, Postemergence): 3; B. signalgrass plant response rating ([5]; Rate 125 g/ha, Preemergence): 1
Cc1cnc(-n2cnc(C(F)(F)F)n2)nc1C(=O)c1cccc(OC(F)(F)F)c1 [Compound 64]	7	–	9	7	7	6	9	9	10	10	10	10	10	8	10	8	6	10	8	10	Plant response rating, Cocklebur [1, 6]: 1; Cocklebur plant response rating ([1]; Rate 62 g/ha, Postemergence): 6; Cocklebur plant response rating ([1]; Rate 125 g/ha, Postemergence): 7; Plant response rating, Cocklebur ([1]; Rate 125 g/ha, Preemergence): 1; Plant response rating, Blackgrass [2, 6]: 5; Blackgrass plant response rating ([2]; Rate 62 g/ha, Postemergence): 4; Blackgrass plant response rating ([2]; Rate 125 g/ha, Postemergence): 5; Plant response rating, Blackgrass ([2]; Rate 125 g/ha, Preemergence): 6; Plant response rating, Redroot pigweed [3, 6]: 9; Redroot pigweed plant response rating ([3]; Rate 62 g/ha, Postemergence): 8; Redroot pigweed plant response rating ([3]; Rate 125 g/ha, Postemergence): 9; Plant response rating, Redroot pigweed ([3]; Rate 125 g/ha, Preemergence): 9; Plant response rating, Morningglory [4, 6]: 4; Morningglory plant response rating ([4]; Rate 62 g/ha, Postemergence): 2; Morningglory plant response rating ([4]; Rate 125 g/ha, Postemergence): 8; Plant response rating, Morningglory ([4]; Rate 125 g/ha, Preemergence): 10; Plant response rating, Morningglory ([4]; Rate 250 g/ha, Postemergence): 8; B. signalgrass plant response rating ([5]; Rate 62 g/ha, Postemergence): 4; B. signalgrass plant response rating ([5]; Rate 125 g/ha, Postemergence): 5; Plant response rating, B. signalgrass ([5]; Rate 125 g/ha, Preemergence): 9
Cc1cnc(-c2ccc(C(F)(F)F)cc2)nc1Cn1ccc(C#N)n1 [Compound 53]	6	0	6	1	1	1	6	2	7	7	7	8	2	3	5	0	2	2	2	6	Plant response rating, Cocklebur [1, 6]: 0; Cocklebur plant response rating ([1]; Rate 62 g/ha, Postemergence): 5; Cocklebur plant response rating ([1]; Rate 125 g/ha, Postemergence): 5; Plant response rating, Cocklebur ([1]; Rate 125 g/ha, Preemergence): 0; Plant response rating, Blackgrass [2, 6]: 0; Blackgrass plant response rating ([2]; Rate 62 g/ha, Postemergence): 1; Blackgrass plant response rating ([2]; Rate 125 g/ha, Postemergence): 1; Plant response rating, Blackgrass ([2]; Rate 125 g/ha, Preemergence): 0; Plant response rating, Redroot pigweed [3, 6]: 0; Redroot pigweed plant response rating ([3]; Rate 62 g/ha, Postemergence): 2; Redroot pigweed plant response rating ([3]; Rate 125 g/ha, Postemergence): 6; Plant response rating, Redroot pigweed ([3]; Rate 125 g/ha, Preemergence): 2; Plant response rating, Morningglory [4, 6]: 1; Morningglory plant response rating ([4]; Rate 125 g/ha, Postemergence): 3; Plant response rating, Morningglory ([4]; Rate 125 g/ha, Preemergence): 2; B. signalgrass plant response rating ([5]; Rate 62 g/ha, Postemergence): 1; B. signalgrass plant response rating ([5]; Rate 125 g/ha, Postemergence): 1; Plant response rating, B. signalgrass ([5]; Rate 125 g/ha, Preemergence): 1
